In data set [1] the test system is human buccal cell line (T146). The experiment in a line: In vitro viability of human buccal cell line (T146), dose-response for safety/toxicity. It counts as cell-based. The note with it: dose-response of sodium suramin, FIG. 8. The text has this:
FIG. 8: In vitro viability of human buccal cell line (T146): dose-response of sodium suramin for safety/toxicity.
Suramin alone is amorphous or liquid-crystalline (FIGS. 5-7) and is safe in a human cell line (FIG. 8).

Data set [2] concerns chronic wounds in diabetic and healthy mice. Kind of data set: Wound healing in chronic wounds in diabetic (ob/ob) and healthy mice. The format is in vivo. The method, then:
FIG. 25: suramin treatment results in increased granulation tissue and wound contraction. A) control. B) 0.15 μg surmain-treated; C) 1.5 μg surmain-treated; and d) 15 μg surmain-treated.

Setting [3] is: mice, 0.15, 1.5 and 15 μg suramin-treated vs control, FIG. 25.

`Cc1ccc(C(=O)Nc2ccc(S(=O)(=O)O)c3cc(S(=O)(=O)O)cc(S(=O)(=O)O)c23)cc1NC(=O)c1cccc(NC(=O)Nc2cccc(C(=O)Nc3cc(C(=O)Nc4ccc(S(=O)(=O)O)c5cc(S(=O)(=O)O)cc(S(=O)(=O)O)c45)ccc3C)c2)c1` [suramin]: in data set [1], the “safety in a human cell line (in vitro viability)” value is “safe”. Further, in data set [2] (setting [3]), the granulation tissue result is reported as “increased” and the wound contraction entry is reported as “increased”. The “wound healing relative to controls” value in data set [2] (ob/ob mice, suramin treatment at different concentrations, FIG. 24) is given as “accelerated wound healing”.

For the origin of these results see US11110060B2, “Compositions and methods for delivering pharmaceutical agents” (Arizona Board of Regents on Behalf of the University of …, priority 2017, dated 2021).
